Reference: PubChem BioAssay AID1918953 (Molecular Pharmacology Branch, DTP, NCI, 2023)
pIC50: −log10 of the molar value.

Test system: MDA-MB-231 complex spheroid viability
Experiment: Anticancer human tumor MDA-MB-231/ATCC cell line growth inhibition;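 note: drug exposure lasted 7 days starting on day 3 of spheroid growth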
Details: for pIC50: curve of first compound; for viability, T/C: stronger effect = lower value
Outline: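 Complex spheroids of tumor cells with HUVEC and human MSCs, exposed to iadademstat combined with other agents. Each agent tested in half-log steps from near clinical Cmax (else 10 microM top), DMSO ≤0.25%.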

[1] = second compound 0.1 µM, first compound 0.00949 µM
[2] = second compound 0.1 µM, first compound 0.03 µM
[3] = second compound 0.1 µM, first compound 0.0949 µM
[4] = second compound 0.1 µM, first compound 0.3 µM
[5] = second compound 0.316 µM, first compound 0.00949 µM
[6] = second compound 0.316 µM, first compound 0.03 µM
[7] = second compound 0.316 µM, first compound 0.0949 µM
[8] = second compound 0.316 µM, first compound 0.3 µM
[9] = second compound 1 µM, first compound 0.00949 µM
[10] = second compound 1 µM, first compound 0.03 µM
[11] = second compound 1 µM, first compound 0.0949 µM
[12] = second compound 1 µM, first compound 0.3 µM
[13] = second compound 3.16 µM, first compound 0.00949 µM
[14] = second compound 3.16 µM, first compound 0.03 µM
[15] = second compound 3.16 µM, first compound 0.0949 µM
[16] = second compound 3.16 µM, first compound 0.3 µM
[17] = second compound 10 µM, first compound 0.00949 µM
[18] = second compound 10 µM, first compound 0.03 µM
[19] = second compound 10 µM, first compound 0.0949 µM
[20] = second compound 10 µM, first compound 0.3 µM

SMILES: COc1cc(C2c3cc4c(cc3C(OC3OC5COC(C)OC5C(O)C3O)C3COC(=O)C23)OCO4)cc(OC)c1O (stereo not given) + NC1CCC(NC2CC2c2ccccc2)CC1
- pIC50 (second compound 0.1 µM): 6.82
- pIC50 (second compound 0.316 µM): 6.84
- pIC50 (second compound 1 µM): 6.89
- pIC50 (second compound 3.16 µM): 7.07
- pIC50 (second compound 10 µM): 7.32
- viability, T/C [1]: 93.9%
- viability, T/C [2]: 79.8%
- viability, T/C [3]: 56.2%
- viability, T/C [4]: 41.6%
- viability, T/C (second compound 0.1 µM, first compound 0.949 µM): 15.6%
- viability, T/C (second compound 0.1 µM, first compound 3 µM): 8.25%
- viability, T/C [5]: 98.8%
- viability, T/C [6]: 79.2%
- viability, T/C [7]: 56.1%
- viability, T/C [8]: 40.7%
- viability, T/C (second compound 0.316 µM, first compound 0.949 µM): 16.8%
- viability, T/C (second compound 0.316 µM, first compound 3 µM): 9.41%
- viability, T/C [9]: 91.1%
- viability, T/C [10]: 73.1%
- viability, T/C [11]: 56%
- viability, T/C [12]: 37.6%
- viability, T/C (second compound 1 µM, first compound 0.949 µM): 18.3%
- viability, T/C (second compound 1 µM, first compound 3 µM): 10.5%
- viability, T/C [13]: 79.6%
- viability, T/C [14]: 60.5%
- viability, T/C [15]: 50.1%
- viability, T/C [16]: 38.2%
- viability, T/C (second compound 3.16 µM, first compound 0.949 µM): 17.8%
- viability, T/C (second compound 3.16 µM, first compound 3 µM): 13.3%
- viability, T/C [17]: 59.5%
- viability, T/C [18]: 52.3%
- viability, T/C [19]: 44.4%
- viability, T/C [20]: 33%
- viability, T/C (second compound 10 µM, first compound 0.949 µM): 17.7%
- viability, T/C (second compound 10 µM, first compound 3 µM): 14.4%

SMILES: Nc1ccn(C2OC(CO)C(O)C2(F)F)c(=O)n1 (stereo not given) + NC1CCC(NC2CC2c2ccccc2)CC1
- pIC50 (second compound 0.1 µM): > 9.02
- pIC50 (second compound 0.316 µM): > 9.02
- pIC50 (second compound 1 µM): > 9.02
- pIC50 (second compound 3.16 µM): > 9.02
- pIC50 (second compound 10 µM): > 9.02
- viability, T/C (second compound 0.1 µM, first compound 0.000949 µM): 23.4%
- viability, T/C (second compound 0.1 µM, first compound 0.003 µM): 18.9%
- viability, T/C [1]: 17.4%
- viability, T/C [2]: 15.9%
- viability, T/C [3]: 8.32%
- viability, T/C [4]: 6.14%
- viability, T/C (second compound 0.316 µM, first compound 0.000949 µM): 24.3%
- viability, T/C (second compound 0.316 µM, first compound 0.003 µM): 19.6%
- viability, T/C [5]: 19%
- viability, T/C [6]: 16%
- viability, T/C [7]: 8.93%
- viability, T/C [8]: 6.74%
- viability, T/C (second compound 1 µM, first compound 0.000949 µM): 22.2%
- viability, T/C (second compound 1 µM, first compound 0.003 µM): 17.9%
- viability, T/C [9]: 18.2%
- viability, T/C [10]: 13.6%
- viability, T/C [11]: 8.49%
- viability, T/C [12]: 7.33%
- viability, T/C (second compound 3.16 µM, first compound 0.000949 µM): 23.7%
- viability, T/C (second compound 3.16 µM, first compound 0.003 µM): 18.9%
- viability, T/C [13]: 17.2%
- viability, T/C [14]: 12.8%
- viability, T/C [15]: 9.01%
- viability, T/C [16]: 6.68%
- viability, T/C (second compound 10 µM, first compound 0.000949 µM): 19.2%
- viability, T/C (second compound 10 µM, first compound 0.003 µM): 19.2%
- viability, T/C [17]: 14.4%
- viability, T/C [18]: 10.3%
- viability, T/C [19]: 6.87%
- viability, T/C [20]: 5.84%

SMILES: Nc1ncn(C2CC(O)C(CO)O2)c(=O)n1 (stereo not given) + NC1CCC(NC2CC2c2ccccc2)CC1
- pIC50 (second compound 0.1 µM): < 6.00
- pIC50 (second compound 0.316 µM): < 6.00
- pIC50 (second compound 1 µM): < 6.00
- pIC50 (second compound 3.16 µM): < 6.00
- pIC50 (second compound 10 µM): 6.55
- viability, T/C (second compound 0.1 µM, first compound 0.00316 µM): 94%
- viability, T/C (second compound 0.1 µM, first compound 0.01 µM): 94.1%
- viability, T/C (second compound 0.1 µM, first compound 0.0316 µM): 92.3%
- viability, T/C (second compound 0.1 µM, first compound 0.1 µM): 81.3%
- viability, T/C (second compound 0.1 µM, first compound 0.316 µM): 71.7%
- viability, T/C (second compound 0.1 µM, first compound 1 µM): 60.4%
- viability, T/C (second compound 0.316 µM, first compound 0.00316 µM): 98.2%
- viability, T/C (second compound 0.316 µM, first compound 0.01 µM): 96.7%
- viability, T/C (second compound 0.316 µM, first compound 0.0316 µM): 92.8%
- viability, T/C (second compound 0.316 µM, first compound 0.1 µM): 86.3%
- viability, T/C (second compound 0.316 µM, first compound 0.316 µM): 66.8%
- viability, T/C (second compound 0.316 µM, first compound 1 µM): 62.7%
- viability, T/C (second compound 1 µM, first compound 0.00316 µM): 96.9%
- viability, T/C (second compound 1 µM, first compound 0.01 µM): 94.5%
- viability, T/C (second compound 1 µM, first compound 0.0316 µM): 89.2%
- viability, T/C (second compound 1 µM, first compound 0.1 µM): 71.5%
- viability, T/C (second compound 1 µM, first compound 0.316 µM): 67.4%
- viability, T/C (second compound 1 µM, first compound 1 µM): 63.9%
- viability, T/C (second compound 3.16 µM, first compound 0.00316 µM): 86%
- viability, T/C (second compound 3.16 µM, first compound 0.01 µM): 84.1%
- viability, T/C (second compound 3.16 µM, first compound 0.0316 µM): 79.2%
- viability, T/C (second compound 3.16 µM, first compound 0.1 µM): 72.8%
- viability, T/C (second compound 3.16 µM, first compound 0.316 µM): 59%
- viability, T/C (second compound 3.16 µM, first compound 1 µM): 54.9%
- viability, T/C (second compound 10 µM, first compound 0.00316 µM): 67%
- viability, T/C (second compound 10 µM, first compound 0.01 µM): 65.5%
- viability, T/C (second compound 10 µM, first compound 0.0316 µM): 63%
- viability, T/C (second compound 10 µM, first compound 0.1 µM): 55.4%
- viability, T/C (second compound 10 µM, first compound 0.316 µM): 45.2%
- viability, T/C (second compound 10 µM, first compound 1 µM): 45.1%
